The values that follow come from the supplement of paper PMC6045584.

Compound in one test: O=C(O)C1(C(=O)O)CCC1.[NH2-].[NH2-].[Pt+2] [CARBOPLATIN]
Kind of test: area under dose-response curve of surviving fraction (unscaled, Aref=0) (surviving fraction x log10(nM)); higher = more resistant. The following applies: exposure time: 5 days; dose range 0.5-1000 nM. The method, boiled down:
(§1)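 Tumour cell lines in 384-well plates were exposed to eight inhibitor concentrations, from 0.5 to 1000 nM, for five days, and viability was read by CellTiter-Glo luminescence in three screens per line. Signals were normalised to DMSO-only wells, and 3-parameter logistic regression in the drc R package fitted dose-response survival curves to the surviving fractions. Area under the curve is given as the unscaled activity area. That area is taken over log10 dose with Aref = 0.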

Compound in another test: Cc1ccc(-c2cc(C(F)(F)F)nn2-c2ccc(S(N)(=O)=O)cc2)cc1 [CELECOXIB]
The test is described as above. To be noted: exposure time: 5 days; dose range 0.5-1000 nM. The method, boiled down:
as §1

Compound in the next test: COCC[n+]1c2c(n(Cc3cnccn3)c1C)C(=O)c1ccccc1C2=O [YM155]
The description is as above. The following applies: exposure time: 5 days; dose range 0.5-1000 nM. Put shortly: as §1

Compound in another test: COc1cc2ncnc(Nc3ccc(F)c(Cl)c3)c2cc1OCCCN1CCOCC1 [GEFITINIB]
Described as above. To be noted: exposure time: 5 days; dose range 0.5-1000 nM. Put shortly:
as §1

Compound in test [1]: T1, CC[C@@]1(O)C(=O)OCc2c1cc1n(c2=O)Cc2cc3ccccc3nc2-1 [CAMPTOTHECIN]
Described as above. To be noted: exposure time: 5 days; dose range 0.5-1000 nM. The method, boiled down: as §1

Compound in test [2]: CC(=O)c1c(C)c2cnc(Nc3ccc(N4CCNCC4)cn3)nc2n(C2CCCC2)c1=O
The description is as above. To be noted: exposure time: 5 days; dose range 0.5-1000 nM. Put shortly: as §1

Compound in the next test: CC(=O)O[C@H]1C(=O)[C@@]2(C)[C@H]([C@H](OC(=O)c3ccccc3)[C@]3(O)C[C@H](OC(=O)[C@H](O)[C@@H](NC(=O)c4ccccc4)c4ccccc4)C(C)=C1C3(C)C)[C@]1(OC(C)=O)CO[C@@H]1C[C@@H]2O [PACLITAXEL]
Described as above. The following applies: exposure time: 5 days; dose range 0.5-1000 nM. Put shortly: as §1

Compound in test [3]: CC(=O)NCC(=O)N1[C@@H]2CC[C@H]1c1ccc(Nc3ncc(C(F)(F)F)c(NC4CCC4)n3)cc12
Described as above. To be noted: exposure time: 5 days; dose range 0.5-1000 nM. Put shortly: as §1

Compound in the next test: C[C@]1(O)C[C@@H](c2nc(-c3ccc4ccc(-c5ccccc5)nc4c3)c3c(N)nccn32)C1 [OSI-906]
The test is described as above. The following applies: exposure time: 5 days; dose range 0.5-1000 nM. The method, boiled down:
as §1

Compound in test [4]: T1, CAMPTOTHECIN
Kind of test: surviving fraction relative to DMSO-only wells; higher = less growth inhibition. To be noted: exposure time: 5 days. The method, boiled down: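 Each tumour cell line was screened three times, and only lines with replicate Pearson r >0.7 and median Z' >0.3 were kept. Cells in log phase were seeded at 250–500 per well in 384-well plates, left 24 hours, then exposed continuously for five days to inhibitors at 0.5, 1, 5, 10, 50, 100, 500 and 1000 nM. Viability was read as CellTiter-Glo luminescence, with surviving fraction normalised to the median of DMSO-only wells.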

± gives the standard deviation of the averaged measurements.

For COLO320DM LARGE INTESTINE, the “area under dose-response curve” value in the test with CARBOPLATIN came out at 4.1; with CELECOXIB, 3.75; in the test with YM155, 2.37; in the test with GEFITINIB it was 4.07; in the test with CAMPTOTHECIN [1], 1.14; in test [2], 3.25. Besides, the “area under dose-response curve” value in the test with PACLITAXEL stood at 2.1; in [3], 2.35; with OSI-906, 3. The surviving fraction with CAMPTOTHECIN [4] (0.5 nM) is 0.381 ± 0.011; in the test with CAMPTOTHECIN [4] (1 nM), 0.929 ± 0.12; in the test with CAMPTOTHECIN [4] (5 nM), 0.458 ± 0.026; with CAMPTOTHECIN [4] (10 nM), 0.38 ± 0.023; with CAMPTOTHECIN [4] (50 nM), 0.137 ± 0.003; in the test with CAMPTOTHECIN [4] (100 nM), 0.263 ± 0.0072. Moreover, the surviving fraction worked out at 0.138 ± 0.0052 with CAMPTOTHECIN [4] (500 nM) and 0.127 ± 0.0051 in the test with CAMPTOTHECIN [4] (1000 nM).
As for SG43 HEADNECK, the “area under dose-response curve” value came out at 3.37 with CARBOPLATIN; 3.37 in the test with CELECOXIB; 2.35 with YM155; 2.21 with GEFITINIB; 2.21 with CAMPTOTHECIN [1]; 2.84 in test [2]. The “area under dose-response curve” value with PACLITAXEL stood at 1.9; in test [3], 2.61; with OSI-906, 2.7. For the same test system, the surviving fraction with CAMPTOTHECIN [4] (0.5 nM) was determined as 1.16 ± 0.13; with CAMPTOTHECIN [4] (1 nM) it was 1.18 ± 0.2; with CAMPTOTHECIN [4] (5 nM), 1.01 ± 0.11; with CAMPTOTHECIN [4] (10 nM), 0.854 ± 0.18; with CAMPTOTHECIN [4] (50 nM), 0.624 ± 0.044; with CAMPTOTHECIN [4] (100 nM), 0.329 ± 0.04. The surviving fraction with CAMPTOTHECIN [4] (500 nM) was found to be 0.256 ± 0.054; with CAMPTOTHECIN [4] (1000 nM), 0.143 ± 0.037.
Turning to H23 LUNG, the “area under dose-response curve” value with CARBOPLATIN worked out at 3.55; in the test with CELECOXIB, 3.59; with YM155, 0.646; with GEFITINIB, 2.37; with CAMPTOTHECIN [1] it was 1.1; in test [2], 3.51. In addition, the “area under dose-response curve” value was 0.876 with PACLITAXEL, 2.73 in [3] and 2.81 with OSI-906. Also, the surviving fraction in the test with CAMPTOTHECIN [4] (0.5 nM) is 0.919 ± 0.02; with CAMPTOTHECIN [4] (1 nM), 0.916 ± 0.041; with CAMPTOTHECIN [4] (5 nM), 0.56 ± 0.021; with CAMPTOTHECIN [4] (10 nM) it was 0.269 ± 0.0046; with CAMPTOTHECIN [4] (50 nM) it was 0.0917 ± 0.006; with CAMPTOTHECIN [4] (100 nM) it was 0.0627 ± 0.0011. Besides, the surviving fraction with CAMPTOTHECIN [4] (500 nM) was determined as 0.0193 ± 0.00058; with CAMPTOTHECIN [4] (1000 nM), 0.0197 ± 0.00058.
With A549 LUNG, the “area under dose-response curve” value worked out at 3.54 with CARBOPLATIN; 3.51 with CELECOXIB; 1.83 with YM155; 3.46 with GEFITINIB; 1.62 with CAMPTOTHECIN [1]; 3.48 in test [2]. Further, the “area under dose-response curve” value with PACLITAXEL came out at 1.32; in test [3], 2.54; with OSI-906, 3.1. The surviving fraction stood at 0.909 ± 0.032 in the test with CAMPTOTHECIN [4] (0.5 nM); 0.933 ± 0.021 with CAMPTOTHECIN [4] (1 nM); 0.964 ± 0.017 in the test with CAMPTOTHECIN [4] (5 nM); 0.681 ± 0.018 in the test with CAMPTOTHECIN [4] (10 nM); 0.2 ± 0.0097 with CAMPTOTHECIN [4] (50 nM); 0.121 ± 0.002 in the test with CAMPTOTHECIN [4] (100 nM). For the same test system, the figures for the surviving fraction in the test with CAMPTOTHECIN [4] (500 nM) and with CAMPTOTHECIN [4] (1000 nM) were 0.037 ± 0.003 and 0.026 ± 0.001, respectively.
